In this test the target is T1, human mGluR2 (Homo sapiens, UniProt Q14416).
T1 construct: expressed in transfected cells; host or cells: HEK293 clonal line
Briefly: mGluR2 cAMP assay. As to conditions: clonally expressed human mGluR2 in HEK293, 1 μM forskolin, 1 μM LY-341495, 30 min, CISBIO cAMP kit. It counts as cell-based.

The mark [1] stands for this setting: read-out: EC50 (nM), activity in mGluR2 cAMP assay.

Structures are written as SMILES. Where a name gives a salt, the structure may show the parent alone. Read-outs that look alike come from different tables or passages of the source.

T1 sequence (Q14416 19-872): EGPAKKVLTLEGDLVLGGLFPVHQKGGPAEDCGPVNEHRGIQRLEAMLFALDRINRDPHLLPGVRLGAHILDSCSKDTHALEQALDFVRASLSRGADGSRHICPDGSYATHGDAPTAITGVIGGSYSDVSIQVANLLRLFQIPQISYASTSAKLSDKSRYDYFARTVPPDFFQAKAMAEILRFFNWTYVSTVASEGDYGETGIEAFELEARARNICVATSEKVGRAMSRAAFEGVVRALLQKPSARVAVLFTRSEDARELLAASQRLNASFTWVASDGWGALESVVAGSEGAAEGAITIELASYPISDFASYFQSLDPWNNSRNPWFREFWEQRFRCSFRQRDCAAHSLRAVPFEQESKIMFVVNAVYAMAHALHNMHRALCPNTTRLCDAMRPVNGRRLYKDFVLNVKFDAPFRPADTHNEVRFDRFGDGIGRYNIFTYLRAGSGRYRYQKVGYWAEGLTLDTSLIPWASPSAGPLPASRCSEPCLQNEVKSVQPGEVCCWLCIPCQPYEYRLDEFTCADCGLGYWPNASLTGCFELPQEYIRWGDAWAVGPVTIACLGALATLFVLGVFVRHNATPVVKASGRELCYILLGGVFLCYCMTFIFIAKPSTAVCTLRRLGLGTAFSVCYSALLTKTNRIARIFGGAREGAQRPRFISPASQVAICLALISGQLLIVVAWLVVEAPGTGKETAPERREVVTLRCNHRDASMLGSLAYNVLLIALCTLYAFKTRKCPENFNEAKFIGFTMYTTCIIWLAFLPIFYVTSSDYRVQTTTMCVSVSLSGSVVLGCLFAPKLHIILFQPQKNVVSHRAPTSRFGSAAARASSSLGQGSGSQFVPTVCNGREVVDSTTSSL

By EC50 is commonly meant the midpoint of the concentration-response curve. For the molecule `O[C@]1(c2ccc(F)cc2)CC[C@H](Oc2ccn3c(CC4CC4)nnc3c2C(F)(F)F)CC1` [Example 95, (1s,4s)-4-(3-(Cyclopropylmethyl)-8-(trifluoromethyl)-[1,2,4]triazolo[4,3-a]pyridin-7-yloxy)-1-(4-fluorophenyl)cyclohexanol, TFA salt], under setting [1], the EC50 stood at 1 nM.

`Fc1ccc([C@H]2C[C@H](Oc3ccn4c(CC5CC5)nnc4c3C(F)(F)F)C2)cc1` [Example 96, 3-(Cyclopropylmethyl)-7-((1r,3r)-3-(4-fluorophenyl)cyclobutoxy)-8-(trifluoromethyl)-[1,2,4]triazolo[4,3-a]pyridine] gave an EC50 (EC50 (nM), activity in mGluR2 cAMP assay) of 0.4 nM.

As for `CO[C@]1(c2ccc(F)cc2)CC[C@H](Oc2ccn3c(CC(F)(F)F)nnc3c2C(F)(F)F)CC1` [Example 97, 7-((1s,4s)-4-(4-Fluorophenyl)-4-methoxycyclohexyloxy)-3-(2,2,2-trifluoroethyl)-8-(trifluoromethyl)-[1,2,4]triazolo[4,3-a]pyridine], under setting [1], the EC50 is 1 nM.

For the molecule `[2H]C([2H])([2H])O[C@]1(c2ccc(F)cc2)CC[C@H](Oc2ccn3c(CC4CC4)nnc3c2C(F)(F)F)CC1` [Example 99, 3-(Cyclopropylmethyl)-7-((1s,4s)-4-(4-fluorophenyl)-4-(methoxy-d3)cyclohexyloxy)-8-(trifluoromethyl)-[1,2,4]triazolo[4,3-a]pyridine], the EC50 under setting [1] was determined as 0.5 nM.

For the origin of these results see US9738642B2, “Triazolopyridine ether derivatives and their use in neurological and pyschiatric disorders” (BRISTOL-MYERS SQUIBB COMPANY, priority 2013, dated 2017).
